What was measured:
Assay type in all cases: in vivo
[1] = system: Myzus persicae (green peach aphid); assay: Example B6: Myzus persicae feeding activity sachet test, mixed population; details: 120 h, sucrose solution, 5 days after infestation
Description: Example B6: Activity Against Myzus persicae (Green Peach Aphid)
(Feeding Activity Sachet Test), Mixed Population
Test compounds were applied by pipette into 24 well plates and mixed with Sucrose solution. The plates were closed with a stretched Parafilm. A plastic stencil with 24 holes is placed onto the plate and infested pea seedlings were placed directly on the Parafilm. The infested plate is closed with a gel blotting paper and another plastic stencil and then turned upside down. 5 days after infestation the samples were checked on mortality. Application rate: 12.5 ppm.

[2] = system: Spodoptera littoralis (Egyptian cotton leaf worm); assay: Example B1: Spodoptera littoralis larvicide, feeding/residual contact activity, preventive (cotton leaf discs); details: foliar, 72 h, L1 larvae on sprayed cotton leaf discs, 3 days after treatment, read-out: effect in at least one of the three categories (mortality, anti-feedancy, or growth inhibition)
Description: Example B1: Activity Against Spodoptera littoralis (Egyptian Cotton Leaf Worm)
(§1) (Larvicide, Feeding/Residual Contact Activity, Preventive)
Cotton leaf discs were placed on agar in a 24-well microtiter plate and sprayed with test solutions. After drying, the leaf discs were infested with five L1 larvae. The samples were checked for mortality, repellent effect, feeding behaviour, and growth regulation 3 days after treatment (DAT). Control of Spodoptera littoralis by a test sample is when at least one of mortality, anti-feedant effect, and growth inhibition is higher than an untreated sample.

[3] = system: Diabrotica balteata (corn root worm); assay: Example B4: Diabrotica balteata larvae L2 on maize sprouts, feeding/contact, preventative; details: 120 h, 5 days, read-out: activity (larval mortality and growth regulation)
Method: Example B4: Activity Against Diabrotica balteata (Corn Root Worm)
(Larvae L2 on Maize Sprouts, Feeding/Contact, Preventative)
Maize sprouts, placed on an agar layer in 24 well micro titer plates were treated with test solutions by spraying. After drying, the MTPs were infested with L2 larvae (6-10 per well). After an incubation period of 5 days, samples were checked for larval mortality and growth regulation.

[4] = system: Myzus persicae (green peach aphid); assay: Example B5: Myzus persicae feeding/residual contact activity, preventive, mixed population (sunflower leaf discs); details: foliar, 144 h, mixed population on sunflower leaf discs, 6 DAT
Method: Example B5: Activity Against Myzus persicae (Green Peach Aphid)
(Feeding/Residual Contact Activity, Preventive), Mixed Population
Sunflower leaf discs were placed on agar in a 24-well microtiter plate and sprayed with test solutions. After drying, the leaf discs were infested with an aphid population of mixed ages. After an incubation period of 6 DAT, samples were checked for mortality and special effects (e.g. phytotoxicity).

[5] = system: Euschistus heros (neotropical brown stink bug); assay: Example B8: Euschistus heros, soybean leaf spray test; details: 120 h, N-2 nymphs on soybean leaf, 5 days after infestation
Method: Example B8: Activity Against Euschistus heros (Neotropical Brown Stink Bug)
Soybean leaf on agar in 24-well microtiter plates were sprayed with aqueous test solutions prepared from 10,000 ppm DMSO stock solutions. After drying the leaf were infested with N-2 nymphs. The samples were assessed for mortality 5 days after infestation.

[6] = system: Plutella xylostella (diamond back moth); assay: Example B3: Plutella xylostella larvicide, feeding/residual contact activity, preventive (artificial diet); details: 120 h, L2 larvae on artificial diet, 5 days, read-out: activity (larval mortality, antifeedant and growth regulation)
Method: Example B3: Activity Against Plutella xylostella (Diamond Back Moth)
as §1
24-well microtiter plate (MTP) with artificial diet was treated with test solutions by pipetting. After drying, the MTPs were infested with L2 larvae (10-15 per well). After an incubation period of 5 days, samples were checked for larval mortality, antifeedant and growth regulation.

Compound	mortality at 12.5 ppm [1] [%]	percent control (mortality, anti-feedancy or growth inhibition) at 400 ppm [2] [%]	mortality at 400 ppm [3] [%]	mortality at 400 ppm [4] [%]	mortality at 400 ppm [5] [%]	mortality at 400 ppm [6] [%]
CCS(=O)(=O)c1cc(C(F)(F)F)cnc1-c1ncc(-c2cccc(C(F)(F)F)c2)n1C [Compound P1, 3-ethylsulfonyl-2-[1-methyl-5-[3-(trifluoromethyl)phenyl]imidazol-2-yl]-5-(trifluoromethyl)pyridine]	≥ 80	≥ 80	> 80	> 80		
CCS(=O)(=O)c1cc(C(F)(F)F)cnc1-c1ncc(-c2cncc(C(F)(F)F)c2)n1C [Compound P5]		≥ 80		> 80		
CCS(=O)(=O)c1cc(C(F)(F)F)cnc1-c1nc(Cl)c(-c2ccc(C(F)(F)F)cc2)n1C [Compound P7]		≥ 80	> 80			
CCS(=O)(=O)c1cc(C(F)(F)F)cnc1-c1ncc(-c2cccc(C(F)(F)F)n2)n1C [Compound P8]		≥ 80		> 80	> 80	
CCn1c(-c2ccc(C(F)(F)F)nc2)cnc1-c1ncc(C(F)(F)F)cc1S(=O)(=O)CC [Compound P11]		≥ 80	> 80	> 80		> 80
CCS(=O)(=O)c1cc(C(F)(F)F)cnc1-c1ncc(-c2cccc(SC(F)(F)F)c2)n1C [Compound P13]		≥ 80				
CCS(=O)(=O)c1cc(C(F)(F)F)cnc1-c1ncc(-c2cccc(S(=O)(=O)C(F)(F)F)c2)n1C [Compound P14]		≥ 80		> 80		
CCS(=O)(=O)c1cc(C(F)(F)F)cnc1-c1nc(C)c(-c2ccc(C(F)(F)F)cc2)n1C [Compound P16]			> 80			
CCS(=O)(=O)c1cc(C(F)(F)F)cnc1-c1cnc(-c2cc(Cl)cc(Cl)c2)n1C [Compound P17]		≥ 80	> 80			> 80
CCS(=O)(=O)c1cc(C(F)(F)F)cnc1-c1ncc(-c2ccc(Cl)cc2)n1C [Compound P18]		≥ 80	> 80			> 80
CCS(=O)(=O)c1cc(C(F)(F)F)cnc1-c1ncc(-c2cc(C(F)(F)F)ccc2F)n1C [Compound P20]			> 80			
CCS(=O)(=O)c1cc(C(F)(F)F)cnc1-c1ncc(-c2cccc(OC(F)(F)F)c2)n1C [Compound P22]		≥ 80	> 80			
CCS(=O)(=O)c1cc(C(F)(F)F)cnc1-c1ncc(-c2ccc(Cl)nc2)n1C [Compound P23]	≥ 80	≥ 80	> 80			> 80
CCS(=O)(=O)c1cc(C(F)(F)F)cnc1-c1ncc(-c2ccc(C(F)(C(F)(F)F)C(F)(F)F)cc2)n1C [Compound P24]		≥ 80	> 80			> 80
CCS(=O)(=O)c1cc(C(F)(F)F)cnc1-c1ncc(-c2ccc(Cl)c(F)c2)n1C [Compound P25]	≥ 80	≥ 80	> 80		> 80	> 80
CCS(=O)(=O)c1cc(C(F)(F)F)cnc1-c1ncc(-c2cccc(C#N)n2)n1C [Compound P26]			> 80			
CCS(=O)(=O)c1cc(C(F)(F)F)cnc1-c1ncc(-c2ccnc(Cl)c2)n1C [Compound P28]		≥ 80	> 80			> 80
CCS(=O)(=O)c1cc(C(F)(F)F)cnc1-c1ncc(-c2cccc(C(F)(F)Cl)c2)n1C [Compound P29]		≥ 80	> 80		> 80	> 80

Compound	mortality at 12.5 ppm [1] [%]	percent control (mortality, anti-feedancy or growth inhibition) at 400 ppm [2] [%]	mortality at 400 ppm [3] [%]	mortality at 400 ppm [4] [%]	mortality at 400 ppm [5] [%]	mortality at 400 ppm [6] [%]
CCS(=O)(=O)c1cc(C(F)(F)F)cnc1-c1ncc(-c2ccc(C(F)(F)F)cc2Cl)n1C [Compound P30]		≥ 80	> 80			
CCS(=O)(=O)c1cc(C(F)(F)F)cnc1-c1ncc(-c2cc(C#N)ccc2Cl)n1C [Compound P32]			> 80			
CCS(=O)(=O)c1cc(C(F)(F)F)cnc1-c1ncc(-c2ccc(Cl)c(Cl)c2F)n1C [Compound P33]		≥ 80	> 80			> 80
CCS(=O)(=O)c1cc(C(F)(F)F)cnc1-c1ncc(-c2cccc(Cl)c2)n1C [Compound P34]			> 80			
CCS(=O)(=O)c1cc(C(F)(F)F)cnc1-c1ncc(-c2ccc(Cl)c(Cl)c2)n1C [Compound P35]		≥ 80	> 80		> 80	> 80
CCS(=O)(=O)c1cc(C(F)(F)F)cnc1-c1ncc(-c2cc(F)cc(F)c2)n1C [Compound P36]			> 80			
CCS(=O)(=O)c1cc(C(F)(F)F)cnc1-c1ncc(-c2ccc(Cl)c(C(F)(F)F)c2)n1C [Compound P38]	≥ 80	≥ 80	> 80		> 80	> 80
CCS(=O)(=O)c1cc(C(F)(F)F)cnc1-c1ncc(-c2ccc(OC(F)(F)F)cc2)n1C [Compound P40]	≥ 80	≥ 80	> 80		> 80	> 80
CCS(=O)(=O)c1cc(C(F)(F)F)cnc1-c1ncc(-c2cccc(C#N)c2)n1C [Compound P41]	≥ 80	≥ 80	> 80			
CCS(=O)(=O)c1cc(C(F)(F)F)cnc1-c1ncc(-c2ccc(F)c(F)c2)n1C [Compound P43]	≥ 80	≥ 80	> 80			> 80
CCS(=O)(=O)c1cc(C(F)(F)F)cnc1-c1ncc(-c2cc(F)c(F)c(F)c2)n1C [Compound P44]		≥ 80	> 80			> 80
CCS(=O)(=O)c1cc(C(F)(F)F)cnc1-c1ncc(-c2ccc(C#N)cc2)n1C [Compound P45]	≥ 80	≥ 80	> 80			> 80
CCS(=O)(=O)c1cc(C(F)(F)F)cnc1-c1ncc(-c2ccc(C#N)nc2)n1C [Compound P47]		≥ 80	> 80			
CCS(=O)(=O)c1cc(C(F)(F)F)cnc1-c1ncc(-c2ccc3c(c2)OC(F)(F)O3)n1C [Compound P48]		≥ 80	> 80			> 80
CCS(=O)(=O)c1cc(C(F)(F)F)cnc1-c1ncc(-c2ccc(C(F)(F)F)c(C(F)(F)F)c2)n1C [Compound P49]		≥ 80	> 80			> 80
CCS(=O)(=O)c1cc(C(F)(F)F)cnc1-c1ncc(-c2cc(C(F)(F)F)cc(Cl)n2)n1C [Compound P51]		≥ 80	> 80			> 80
CCS(=O)(=O)c1cc(C(F)(F)F)cnc1-c1ncc(-c2cc(C(F)(F)F)cc(C(F)(F)F)c2)n1C [Compound P52]		≥ 80	> 80			> 80
CCS(=O)(=O)c1cc(C(F)(F)F)cnc1-c1ncc(-c2ccc(F)c(Cl)c2)n1C [Compound P53]		≥ 80	> 80			> 80

Reference: patent US9988366B2, “Pesticidally active heterocyclic derivatives with sulphur containing substituents” (Syngenta Participations AG, priority 2014, dated 2018)
